Assay results: ChEMBL document CHEMBL3526130, “An evaluation of using rat-derived single-dose neuropharmacokinetic parameters to project accurately large animal unbound brain drug concentrations” (Drug Metab Dispos, 2012)

Tests used:
[1] = Unbound fraction in cynomolgus monkey plasma treated with risperidone at 0.1 mg/kg, sc by LC-MS/MS analysis; format: ADME, organism-based, Macaca fascicularis; set-up: dose 0.1 mg/kg, route subcutaneous
[2] = Unbound fraction in cynomolgus monkey brain treated with risperidone at 0.1 mg/kg, sc by LC-MS/MS analysis; format: ADME, organism-based, Macaca fascicularis; set-up: dose 0.1 mg/kg, route subcutaneous
[3] = AUC(0 to 2 hrs) in Beagle dog plasma treated with risperidone at 0.1 mg/kg, sc by LC-MS/MS analysis; format: ADME, organism-based, Canis lupus familiaris; set-up: time < 2 hr, dose 0.1 mg/kg, route subcutaneous
[4] = AUC(0 to 1 hr) in cynomolgus monkey plasma treated with risperidone at 0.1 mg/kg, sc by LC-MS/MS analysis; format: ADME, organism-based, Macaca fascicularis; set-up: time < 1 hr, dose 0.1 mg/kg, route subcutaneous
[5] = AUC(0 to 2 hrs) in Sprague-Dawley rat plasma treated with risperidone at 1 mg/kg, sc by LC-MS/MS analysis; format: ADME, organism-based; set-up: time < 2 hr, dose 1 mg/kg, route subcutaneous
[6] = AUC(0 to infinity) in Sprague-Dawley rat plasma treated with risperidone at 1 mg/kg, sc by LC-MS/MS analysis; format: ADME, organism-based; set-up: time infinity, dose 1 mg/kg, route subcutaneous
[7] = AUC(0 to 2 hrs) in Sprague-Dawley rat cerebrospinal fluid treated with risperidone at 1 mg/kg, sc by LC-MS/MS analysis; format: ADME, organism-based; set-up: time < 2 hr, dose 1 mg/kg, route subcutaneous
[8] = AUC(0 to infinity) in Sprague-Dawley rat cerebrospinal fluid treated with risperidone at 1 mg/kg, sc by LC-MS/MS analysis; format: ADME, organism-based; set-up: time infinity, dose 1 mg/kg, route subcutaneous
[9] = Ratio of drug level in brain to plasma in Sprague-Dawley rat treated with risperidone at 1 mg/kg, sc by LC-MS/MS analysis; format: ADME, organism-based; set-up: dose 1 mg/kg, route subcutaneous; settings: read-out: BPR
Nucleic Acid = assay: Ratio of drug level in cerebrospinal fluid to unbound plasma concentration in Sprague-Dawley rat treated with risperidone at 1 mg/kg, sc by LC-MS/MS analysis; format: ADME, organism-based; set-up: dose 1 mg/kg, route subcutaneous; settings: in vivo
[10] = Ratio of unbound brain concentration to drug level in cerebrospinal fluid in Sprague-Dawley rat treated with risperidone at 1 mg/kg, sc by LC-MS/MS analysis; format: ADME, organism-based; set-up: dose 1 mg/kg, route subcutaneous; settings: in vivo
[11] = Ratio of unbound drug level in brain to plasma in Sprague-Dawley rat treated with risperidone at 1 mg/kg, sc by LC-MS/MS analysis; format: ADME, organism-based; set-up: dose 1 mg/kg, route subcutaneous
[12] = Unbound fraction in Beagle dog plasma treated with risperidone at 0.1 mg/kg, sc by LC-MS/MS analysis; format: ADME, organism-based, Canis lupus familiaris; set-up: dose 0.1 mg/kg, route subcutaneous
[13] = Unbound fraction in Beagle dog brain treated with risperidone at 0.1 mg/kg, sc by LC-MS/MS analysis; format: ADME, organism-based, Canis lupus familiaris; set-up: dose 0.1 mg/kg, route subcutaneous
[14] = AUC(0 to 2 hrs) in Sprague-Dawley rat brain treated with risperidone at 1 mg/kg, sc by LC-MS/MS analysis; format: ADME, organism-based; set-up: time < 2 hr, dose 1 mg/kg, route subcutaneous
[15] = AUC(0 to infinity) in Sprague-Dawley rat brain treated with risperidone at 1 mg/kg, sc by LC-MS/MS analysis; format: ADME, organism-based; set-up: time infinity, dose 1 mg/kg, route subcutaneous
[16] = Ratio of unbound brain concentration to drug level in cerebrospinal fluid in Beagle dog treated with risperidone at 0.1 mg/kg, sc by LC-MS/MS analysis; format: ADME, organism-based, Canis lupus familiaris; set-up: dose 0.1 mg/kg, route subcutaneous; settings: in vivo
[17] = Ratio of unbound brain concentration to drug level in cerebrospinal fluid in cynomolgus monkey treated with risperidone at 0.1 mg/kg, sc by LC-MS/MS analysis; format: ADME, organism-based, Macaca fascicularis; set-up: dose 0.1 mg/kg, route subcutaneous; settings: in vivo
[18] = Ratio of unbound drug level in brain to plasma in Beagle dog treated with risperidone at 0.1 mg/kg, sc by LC-MS/MS analysis; format: ADME, organism-based, Canis lupus familiaris; set-up: dose 0.1 mg/kg, route subcutaneous; settings: brain and plasma
[19] = Ratio of unbound drug level in brain to plasma in cynomolgus monkey treated with risperidone at 0.1 mg/kg, sc by LC-MS/MS analysis; format: ADME, organism-based, Macaca fascicularis; set-up: dose 0.1 mg/kg, route subcutaneous; settings: brain and plasma
[20] = AUC(0 to 2 hrs) in Beagle dog cerebrospinal fluid treated with risperidone at 0.1 mg/kg, sc by LC-MS/MS analysis; format: ADME, organism-based, Canis lupus familiaris; set-up: time < 2 hr, dose 0.1 mg/kg, route subcutaneous
[21] = AUC(0 to 1 hr) in cynomolgus monkey cerebrospinal fluid treated with risperidone at 0.1 mg/kg, sc by LC-MS/MS analysis; format: ADME, organism-based, Macaca fascicularis; set-up: time < 1 hr, dose 0.1 mg/kg, route subcutaneous
[22] = AUC(0 to 2 hrs) in Beagle dog brain treated with risperidone at 0.1 mg/kg, sc by LC-MS/MS analysis; format: ADME, organism-based, Canis lupus familiaris; set-up: time < 2 hr, dose 0.1 mg/kg, route subcutaneous
[23] = AUC(0 to 1 hr) in cynomolgus monkey brain treated with risperidone at 0.1 mg/kg, sc by LC-MS/MS analysis; format: ADME, organism-based, Macaca fascicularis; set-up: time < 1 hr, dose 0.1 mg/kg, route subcutaneous
[24] = Ratio of drug level in brain to plasma in Beagle dog treated with risperidone at 0.1 mg/kg, sc by LC-MS/MS analysis; format: ADME, organism-based, Canis lupus familiaris; set-up: dose 0.1 mg/kg, route subcutaneous; settings: brain and plasma, read-out: BPR
[25] = Ratio of drug level in brain to plasma in cynomolgus monkey treated with risperidone at 0.1 mg/kg, sc by LC-MS/MS analysis; format: ADME, organism-based, Macaca fascicularis; set-up: dose 0.1 mg/kg, route subcutaneous; settings: brain and plasma, read-out: BPR

SMILES: Cc1nc2n(c(=O)c1CCN1CCC(c3noc4cc(F)ccc34)CC1)CCCC2O (stereo unspecified) [PALIPERIDONE]
- fraction unbound [1]: 0.185
- fraction unbound [2]: 0.105
- AUC(0-t) at 2 h [3]: 77.4 ng·h/mL
- AUC(0-t) at 1 h [4]: 76 ng·h/mL
- AUC(0-t) at 2 h [5]: 184 ng·h/mL
- AUC(0-inf) [6]: 342 ng·h/mL
- AUC(0-t) at 2 h [7]: 3.28 ng·h/mL
- AUC(0-inf) [8]: 12.2 ng·h/mL
- Kp [9]: 0.07
- Ratio (Nucleic Acid): 0.14
- Ratio [10]: 0.31
- Kp uu [11]: 0.04
- fraction unbound [12]: 0.203
- fraction unbound [13]: 0.0903
- AUC(0-t) at 2 h [14]: 13.5 ng·h/mL
- AUC(0-inf) [15]: 69 ng·h/mL
- Ratio [16]: 0.68
- Ratio [17]: 1.03
- Kp uu [18]: 0.27
- Kp uu [19]: 0.19
- AUC(0-t) at 2 h [20]: 6.27 ng·h/mL
- AUC(0-t) at 1 h [21]: 2.54 ng·h/mL
- AUC(0-t) at 2 h [22]: 47.1 ng·h/mL
- AUC(0-t) at 1 h [23]: 24.8 ng·h/mL
- Kp [24]: 0.61
- Kp [25]: 0.33
